We go through six molecules from ChEMBL document CHEMBL3638723, “Isoxazolo-pyridine derivatives” (2014).

For orientation: Ki means the dissociation constant of the complex between target and ligand, obtained from inhibition or displacement.

For the assay, the target named is T1, Gamma-aminobutyric acid receptor subunit alpha-5 (Homo sapiens, UniProt P31644).
T1 sequence (P31644 whole entry): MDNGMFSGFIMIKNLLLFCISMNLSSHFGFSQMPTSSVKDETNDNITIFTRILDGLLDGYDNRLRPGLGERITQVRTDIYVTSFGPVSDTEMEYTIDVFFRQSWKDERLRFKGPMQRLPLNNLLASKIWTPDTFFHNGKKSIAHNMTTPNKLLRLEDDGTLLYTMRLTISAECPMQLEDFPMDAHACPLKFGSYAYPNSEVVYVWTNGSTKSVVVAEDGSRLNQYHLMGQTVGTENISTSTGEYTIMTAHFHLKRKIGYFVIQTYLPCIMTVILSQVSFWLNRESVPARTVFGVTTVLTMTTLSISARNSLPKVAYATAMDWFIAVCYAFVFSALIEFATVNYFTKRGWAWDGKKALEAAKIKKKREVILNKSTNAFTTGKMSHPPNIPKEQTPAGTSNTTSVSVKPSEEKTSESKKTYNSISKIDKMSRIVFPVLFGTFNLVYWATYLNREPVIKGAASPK
Put plainly: Radioligand Binding Assay: Radioligand binding assays were carried out in a volume of […] (96-well plates) which contained […] of cell memebranes, [3H]flumazenil at a concentration of 1 nM for α1, α2, α3 subunits and 0.5 nM for α5 subunits and the test compound in the range of 10-10−3x10−6 M. Nonspecific binding was defined by 10−5 M diazepam and typically represented less than 5% of the total binding. Assays were incubated to equilibrium for 1 hour at 4 C. and harvested onto GF/C uni-filters (Packard) by filtration using a Packard harvester and washing with ice-cold wash buffer (50 mM Tris; pH 7.5). After drying, filter-retained radioactivity was detected by liquid scintillation counting.
Consider `Cc1onc(-c2ccccc2)c1COc1ccc(C(=O)NC(C)C)cn1`, for which the Ki worked out at 1.3 nM.

With `Cc1onc(-c2ccc(Cl)cc2)c1COc1ccc(C(=O)N2CCOCC2)cn1`, the Ki came out at 5.4 nM.

For `Cc1onc(-c2ccccc2)c1COc1ccc(C(=O)N2CCn3cnnc3C2)cn1`, the Ki was determined as 29.9 nM.

On to `Cc1onc(-c2ccccn2)c1COc1ccc(C(=O)N2CCOCC2)cn1`, for which the Ki stood at 14.6 nM.

As for `Cc1onc(-c2ccc(Cl)cn2)c1COc1ccc(C(=O)N2CCSCC2)cn1`, the Ki stood at 0.4 nM.

As to `Cc1onc(-c2ccccc2)c1COc1ccc(C(=O)N2CC3(COC3)C2)cn1`, the Ki was 15.1 nM.
